What is called EC50 is the concentration giving half of the maximal effect.

The structures appear in SMILES notation. The source made the active and inactive calls. Rule as the data show it: actives have a measured EC50 and inactives only a lower limit. Where only a bound is given, the exact number is not on record here.

This assay addresses T1, Streptokinase A (Streptococcus pyogenes serotype M1, UniProt P10520).
T1 sequence (P10520 whole entry): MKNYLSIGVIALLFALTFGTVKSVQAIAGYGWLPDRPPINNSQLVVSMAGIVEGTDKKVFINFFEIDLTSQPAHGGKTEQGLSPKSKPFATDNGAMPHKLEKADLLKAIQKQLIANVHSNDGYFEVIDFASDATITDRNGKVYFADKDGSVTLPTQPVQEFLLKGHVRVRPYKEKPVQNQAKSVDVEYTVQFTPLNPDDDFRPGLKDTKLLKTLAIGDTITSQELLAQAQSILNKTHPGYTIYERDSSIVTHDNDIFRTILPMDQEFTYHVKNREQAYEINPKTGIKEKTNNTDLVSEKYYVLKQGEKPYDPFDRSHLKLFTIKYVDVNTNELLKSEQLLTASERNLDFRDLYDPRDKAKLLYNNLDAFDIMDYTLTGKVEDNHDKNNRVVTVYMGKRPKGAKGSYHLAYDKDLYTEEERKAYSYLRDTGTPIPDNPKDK
The assay is described as follows: S. pyogenes streptokinase expression inhibitors, potency, dose response, plasminogen activation absorbance, OD405 (AID 1914).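 Also: secreted streptokinase activity via plasminogen activation per viability signal from cell pellet.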 It is filed as functional, Streptococcus pyogenes M1 GAS.

As for `O=C(Cc1ccc([N+](=O)[O-])cc1)N/N=C/c1ccc([N+](=O)[O-])o1`, the EC50 was 37 µM (active). On to `COc1ccc(C(NC(=O)C(C)C)c2ccc3cccnc3c2O)cc1` (configuration not stated), for which the half-maximal effective concentration (EC50) is recorded as > 150 µM (not active).

The record behind these values is ChEMBL document CHEMBL1201862, “PubChem BioAssay data set” (2004).
